Laboratory results: US20190151256A1, “Composition Including Nonanal As Active Ingredient For Preventing Hair Loss Or Stimulating Hair Development” (Industry-Academic Cooperation Foundation, Yonsei University, priority 2017, published 2019)

Experiments:
[1] = change in body weight during dermal application; details: after 4 weeks of application, 3 mg/mouse/day dermal
Protocol: Experiments were carried out using 24 male C57BL/6N mice aged 6 weeks, which were purchased from OrientBio Inc., acclimated for two weeks in a laboratory environment, and then divided into a total of three groups (n=5) of a negative control (CON), a positive control (MXD) and a nonanal group (NN). An animal laboratory was maintained at 21±2.0° C., a relative humidity of 50±5%, on a 12-hour day/night cycle. During the experimental period, a general solid feed (chow) and water were freely offered to the mice.
To investigate a hair development effect, an 8-week-old mouse with telogen-phase hair, in which a dorsal skin color was pink, were used. The dorsal hair of the mouse was removed using a clipper for a mouse, and the sample was applied daily at 4 p.m. for 4 weeks. The test material nonanal (3 mg/mouse/day) and the control drug Minoxidil (3 mg/mouse/day) were applied after being dissolved in the vehicle (ethanol:water:propylene glycol=5:3:2), and only the vehicle was applied to the negative control group.
A body weight of the experimental animal from immediately before the application of an agent for hair development to the end of the application was measured weekly.

[2] = system: rats; details: oral; cited from earlier work
[3] = system: telogen-phase hair; assay: hair development state and hair length in shaved mice; assay type: in vivo, C57BL/6N mice; details: dermal 3 mg/mouse/day
Protocol: To visually examine a hair growth state, 1, 2, 3, and 4 weeks after the application started, the experimental animals were slightly anesthetized with ether, and a dorsal region was photographed. To evaluate the degree of hair growth, the hair length was measured using a ruler.

[4] = system: diarrhea-induced mice; details: cited from earlier work
[5] = system: β-catenin; assay: Western blot of dorsal skin tissue; assay type: in vivo, mouse; details: Western blotting
Protocol: A predetermined amount of skin tissue was homogenized with liquid nitrogen and a lysis buffer using a mortar and centrifuged at 13,000×g and 4° C. for 20 minutes to obtain an intermediate layer, and then a protein was quantified by the Bradford method. 50 μg of the protein was subjected to electrophoresis on an SDS polyacrylamide gel and electroblotted onto a PVDF hyperfilm, and then reacted with a β-catenin or β-actin antibody (Cell Signaling Technology, Danvers, Mass., USA). A signal of each protein was visualized using a chemiluminescent detection system (Amersham), and then a band thickness was quantified using the Quantity One Analysis Software (Bo-Rad Laboratories).

[6] = clinical studies, 1% solution; cited from earlier work
[7] = system: T-Cell factor (TCF); assay: q-PCR gene expression in dorsal skin tissue; assay type: in vivo, mouse; details: 4 weeks
Protocol: (§1) To quantify total RNA in skin tissue of the experimental animals, 1 mL of a TRIzol solution was added to 50 to 100 mg of skin tissue and homogenized, and then centrifuged at 4° C. and 12,000×g for 10 minutes. The supernatant was transferred to a new tube, 200 μl of chloroform was added, and then the resulting mixture was vigorously shaken. This process was repeated twice, then the supernatant was transferred to a new tube, in which isopropanol and the supernatant were added in a ratio of 1:1. The resulting mixture was shaken 10 times, and maintained at room temperature for 10 minutes and centrifuged at 12,000×g and 4° C. for 10 minutes to remove the supernatant. Then, 1 ml of 70% ethanol was added to the remaining pellet and centrifuged at 7,500×g and 4° C. for 5 minutes. Following the removal of ethanol, a tube containing the RNA pellet was dried at room temperature for 5 minutes, and the RNA pellet was dissolved in nuclease-free water. Concentrations of the extracted RNA specimens at 260 nm and 280 nm wavelengths were measured using a UV/VIS spectrophotometer (Beckman Coulter, DU730), and agarose gel electrophoresis was performed to confirm the integrity of the RNA specimens.
(§2) Following the isolation of RNA, cDNA was synthesized by performing reverse transcription using an oligo dT primer and a Superscript reverse transcriptase (Gibco BRL, Gaithersburg, Md., USA). To measure expression levels of genes, real-time q-PCR was performed using SYBR Green (Bio-Rad, Hercules, Calif., USA), and the instrument used was a CFX Connect™ Real-Time PCR Detection System (Bio-Rad).
(§3) For real time PCR, 2 μL of cDNA, 10 μL of a 2× SYBR mix, 1 μL each of a forward primer and a reverse primer (10 to 20 pmol/μL) were added, and then, H2O was filled to the final volume 20 μL. A PCR extension step was performed as follows, and 35 extension cycles was performed. The extension was performed at 95° C. for 1 minute for hot start, at 95° C. for 15 seconds for denaturation in the extension step, at 55° C. for 30 seconds for annealing, and at 72° C. for 1 minute for extension. After all cycles were completed, to identify primer specificity, melting curve analysis was performed.
(§4) Change in expression of a β-catenin signaling material known as a mechanism for promoting hair development in skin tissue was analyzed by q-PCR analysis on dorsal skin tissue of a mouse to which the test material was applied for 4 weeks.

[8] = system: Lymphoid enhancer factor (LEF); assay: q-PCR gene expression in dorsal skin tissue; assay type: in vivo, mouse; details: 4 weeks
Protocol: as §1, §2, §3, §4

[9] = system: β-catenin; assay: q-PCR gene expression in dorsal skin tissue; assay type: in vivo, mouse; details: 4 weeks
Protocol: as §1, §2, §3, §4

[10] = system: Cyclin D1; assay: q-PCR gene expression in dorsal skin tissue; assay type: in vivo, mouse; details: 4 weeks
Protocol: as §1, §2, §3, §4

[11] = system: rabbits; details: transdermal; cited from earlier work
[12] = system: hair follicles; assay: histological analysis of dorsal skin; assay type: in vivo, C57BL/6N mice; details: 4 weeks of application
From the text: The experimental animals were sacrificed after four weeks of the application, and a dorsal skin tissue specimen was extracted from the test material-applied region using scissors and forceps, and then fixed with formalin. By steps, the resulting specimen was dehydrated with an alcohol and xylene, embedded in paraffin, sliced into a 5-μm fragment using a microtome, and treated again with an alcohol and xylene to remove paraffin. After hematoxylin-eosin staining, a histological change in hair follicle tissue was observed using an optical microscope. The hair development cycle was evaluated by a pathologist, the number and diameter of hair follicles were measured using an optical microscope, and the number of hair follicles in the test group was measured under a 40× optical microscope.

SMILES	body weight, difference between test groups [1]	lethal dose 50% (LD50 value) [2]	hair length at three weeks ([3]; 3 weeks)	visual hair growth after 4 weeks ([3]; 4 weeks, vs negative control)	increase in hair length compared with negative control ([3]; after four weeks, p<0.001)	visual hair growth (onset) ([3]; weekly photographs)	inhibition of diarrhea [4]	increase in β-catenin protein expression compared with negative control [5]	β-catenin protein expression effect compared with Minoxidil group [5]	dermal irritation or sensitization reaction [6]	TCF gene expression compared with negative control [7]	LEF gene expression compared with negative control [8]	β-catenin gene expression compared with negative control [9]	cyclin D1 gene expression compared with negative control [10]	LD50 value [11]	increase in number of hair follicles compared with negative control [12]	microscopy of hair follicles [12]	increase in hair follicle diameter compared with negative control ([12]; image analysis)
Nc1cc(N2CCCCC2)nc(N)[n+]1[O-] [Minoxidil]	no significant difference	–	–	–	–	–	–	–	–	–	–	–	–	–	–	–	–	–
CCCCCCCCC=O [nonanal]	–	5,000 mg/kg	significantly increased	hair grew more evenly and fully in more individuals than that in the negative control group	434%	from three weeks of the application, hair began to grow	significant effect in inhibition of diarrhea	71%	superior to that of the Minoxidil group	no dermal irritation or sensitization reaction	significantly increased	significantly increased	significantly increased	significantly increased	5,000 mg/kg	166%	hair follicles elongated to come out of the skin	38%
